Where two headings read alike, the source gives them in different places.
Columns and labels:
Pim1 kinase [1] = biological target: T1, Pim1 kinase (Homo sapiens, UniProt P11309); test: KinaseGlo Pim1 ATP depletion assay; type: biochemical; details: Table 4, 2.5 nM PIM1, 20 μM ATP, 40 μM BAD peptide
Description: The activity of PIM1 is measured using a luciferase-luciferin based ATP detection reagent to quantify ATP depletion resulting from kinase-catalyzed phosphoryl transfer to a peptide substrate. Compounds to be tested are dissolved in 100% DMSO and directly distributed into white 384-well plates at 0.5 μl per well. […] After 15 minutes, 10 μl of 40 μM ATP in assay buffer is added. […] The reaction is performed until approximately 50% of the ATP is depleted, then stopped with the addition of 20 μl KinaseGlo Plus (Promega Corporation) solution. The stopped reaction is incubated for 10 minutes and the remaining ATP detected via luminescence on the Victor2 (Perkin Elmer).

Pim2 kinase [2] = biological target: T2, Pim2 kinase (Homo sapiens, UniProt Q9P1W9); test: KinaseGlo Pim2 ATP depletion assay; type: biochemical; details: Table 4, 5 nM PIM2, 4 μM ATP, 10 μM BAD peptide
T2 sequence (Q9P1W9 whole entry): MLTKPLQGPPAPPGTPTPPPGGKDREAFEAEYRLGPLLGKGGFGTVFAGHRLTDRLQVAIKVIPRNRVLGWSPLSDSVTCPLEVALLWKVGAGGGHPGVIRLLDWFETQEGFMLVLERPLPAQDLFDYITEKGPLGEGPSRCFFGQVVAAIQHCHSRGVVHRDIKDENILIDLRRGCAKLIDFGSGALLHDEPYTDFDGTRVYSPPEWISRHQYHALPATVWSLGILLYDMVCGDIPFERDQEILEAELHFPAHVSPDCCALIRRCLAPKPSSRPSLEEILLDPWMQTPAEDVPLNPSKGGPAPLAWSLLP
Description: (§1) The activity of PIM2 is measured using a luciferase-luciferin based ATP detection reagent to quantify ATP depletion resulting from kinase-catalyzed phosphoryl transfer to a peptide substrate. Compounds to be tested are dissolved in 100% DMSO and directly distributed into white 384-well plates at 0.5 μl per well. […] After 15 minutes, 10 μl of 8 μM ATP in assay buffer is added. Final assay concentrations are 5 nM PIM2, 4 μM ATP, 10 μM BAD peptide and 2.5% DMSO. The reaction is performed until approximately 50% of the ATP is depleted, then stopped with the addition of 20 μl KinaseGlo Plus (Promega Corporation) solution. The stopped reaction is incubated for 10 minutes and the remaining ATP detected via luminescence on the Victor2 (Perkin Elmer).

Pim3 kinase [3] = biological target: T3, Pim3 kinase (Homo sapiens, UniProt Q86V86); test: KinaseGlo Pim3 ATP depletion assay; type: biochemical; details: Table 4, 40 μM ATP, 100 μM BAD peptide
Description: as §1, with “of PIM3” for “of PIM2”, “of 80” for “of 8”, “nM PIM1, 40” for “nM PIM2, 4”, “ATP, 100” for “ATP, 10”, “stopped by” for “stopped with”

[4] = test system: KMS11 (human myeloma cell line); test: Cell proliferation assay (CellTiter-Glo) in KMS11 cells; type: cell-based; details: KMS-11, 72 h, read-out: KMS11-luc EC50
In short: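 KMS11 cells at 2000 per well in IMDM/10% FBS were exposed to compound for 3 days. Viability was read by CellTiter-Glo luminescence.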

Pim1 kinase [5] = biological target: T1, Pim1 kinase; test: Pim1 AlphaScreen assay (high ATP)
Pim3 kinase [6] = biological target: T3, Pim3 kinase; test: Pim3 AlphaScreen assay (high ATP)
Pim2 kinase [7] = biological target: T2, Pim2 kinase; test: Pim2 AlphaScreen assay (high ATP)
Description: The activity of Pim 1, Pim 2, & Pim 3 is measured using a homogeneous bead based system quantifying the amount of phosphorylated peptide substrate resulting from kinase-catalyzed phosphoryl transfer to a peptide substrate. Compounds to be tested are dissolved in 100% DMSO and directly distributed to a white 384-well plate at 0.25 μl per well. […] This is followed by the addition of 5 μl/well of Pim 1, Pim 2 or Pim 3 kinase in assay buffer (concentrations described below). Final assay concentrations (described below) are in 2.5% DMSO. The reactions are performed for ˜2 hours, then stopped by the addition of 10 μl of 0.75 μg/ml anti-phospho Ser/Thr antibody (Cell Signaling), 10 μg/ml Protein A AlphaScreen beads (Perkin Elmer), and 10 μg/ml streptavidin coated AlphaScreen beads in stop/detection buffer (50 mM EDTA, 95 mM Tris, pH=7.5, 0.01% Tween-20). The stopped reactions are incubated overnight in the dark. The phosphorylated peptide is detected via an oxygen anion initiated chemiluminescence/fluorescence cascade using the Envision plate reader (Perkin Elmer).

T1 sequence (P11309 whole entry): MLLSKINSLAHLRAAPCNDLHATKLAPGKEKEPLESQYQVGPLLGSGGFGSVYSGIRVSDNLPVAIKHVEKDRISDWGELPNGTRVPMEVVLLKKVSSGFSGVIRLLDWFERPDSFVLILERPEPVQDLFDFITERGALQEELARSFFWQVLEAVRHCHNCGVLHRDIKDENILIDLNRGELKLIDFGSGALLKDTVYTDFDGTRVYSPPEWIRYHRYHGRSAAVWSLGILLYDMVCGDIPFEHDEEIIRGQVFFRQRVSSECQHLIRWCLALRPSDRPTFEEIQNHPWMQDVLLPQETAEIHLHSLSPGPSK

Row | Structure (SMILES) | IC50 (Pim1 kinase [1]) [nM] | IC50 (Pim2 kinase [2]) [nM] | IC50 (Pim3 kinase [3]) [nM] | EC50 ([4]; Table 4, 3 days) [nM] | IC50 (Pim1 kinase [5]) [nM] | EC50 ([4]; Table 5, 3 days) [nM] | IC50 (Pim3 kinase [6]) [nM] | IC50 (Pim2 kinase [7]) [nM]
1 | C[C@H]1C[C@@H](c2ccncc2NC(=O)c2ccc(F)c(-c3c(F)cccc3F)n2)C[C@@H](O)C1(O)CO (stereo in doubt) [Example 59, 6-(2,6-difluorophenyl)-N-(4-((1R,3R,4R,5S)-3,4-dihydroxy-4-(hydroxymethyl)-5-methylcyclohexyl)pyridin-3-yl)-5-fluoropicolinamide] | 0.3 | 1.5 | 1.3 | 1070 |  |  |  | 
2 | CC[C@]1(O)[C@H](O)C[C@H](c2ccncc2NC(=O)c2nc(-c3c(F)cccc3F)ccc2N)C[C@@H]1C [Example 32, 3-amino-6-(2,6-difluorophenyl)-N-(4-((1R,3R,4R,5S)-4-ethyl-3,4-dihydroxy-5-methylcyclohexyl)pyridin-3-yl) picolinamide] | 0.4 | 1 | 1.4 | 880 |  |  |  | 
3 | CC[C@]1(O)[C@H](O)C[C@H](c2ccncc2NC(=O)c2nc(-c3c(F)cccc3F)c(F)cc2N)C[C@@H]1C [Example 33, 3-amino-6-(2,6-difluorophenyl)-N-(4-((1R,3R,4R,5S)-4-ethyl-3,4-dihydroxy-5-methylcyclohexyl)pyridin-3-yl)-5-fluoropicolinamide] | 0.5 | 1.1 | 1.8 | 580 |  |  |  | 
4 | CC[C@]1(O)[C@H](O)C[C@H](c2ccncc2NC(=O)c2nc(-c3c(F)cccc3F)ncc2N)C[C@@H]1C [Example 34, 5-amino-2-(2,6-difluorophenyl)-N-(4-((1R,3R,4R,5S)-4-ethyl-3,4-dihydroxy-5-methylcyclohexyl)pyridin-3-yl) pyrimidine-4-carboxamide] | 0.6 | 1.3 | 1.7 | 610 |  |  |  | 
5 | CC[C@]1(O)[C@H](C)C[C@H](c2ccncc2NC(=O)c2nc(-c3c(F)cccc3F)ncc2N)C[C@@H]1O [Example 35, 5-amino-2-(2,6-difluorophenyl)-N-(4-((1S,3S,4S,5R)-4-ethyl-3,4-dihydroxy-5-methylcyclohexyl)pyridin-3-yl) pyrimidine-4-carboxamide] | 49.5 | 676 | 150 | ≥ 10000 |  |  |  | 
6 | C[C@H]1C[C@@H](c2ccncc2NC(=O)c2cncc(-c3ccccc3)n2)C[C@@H](O)[C@]1(C)O [Example 36, N-(4-((1R,3R,4R,5S)-3,4-dihydroxy-4,5-dimethylcyclohexyl)pyridin-3-yl)-6-phenylpyrazine-2-carboxamide] | 525 | 5410 | 307 |  |  |  |  | 
7 | C[C@H]1C[C@@H](c2ccncc2NC(=O)c2nc(-c3ccccc3)cnc2N)C[C@@H](O)[C@]1(C)O [Example 37, 3-amino-N-(4-((1R,3R,4R,5S)-3,4-dihydroxy-4,5-dimethylcyclohexyl)pyridin-3-yl)-6-phenylpyrazine-2-carboxamide] | 1.3 | 4.9 | 2.5 |  |  |  |  | 
8 | CC[C@]1(O)[C@H](O)C[C@H](c2ccncc2NC(=O)c2ccc(F)c(-c3c(F)cccc3F)n2)C[C@@H]1C [Example 41, 6-(2,6-difluorophenyl)-N-(4-((1R,3R,4R,5S)-4-ethyl-3,4-dihydroxy-5-methylcyclohexyl)pyridin-3-yl)-5-fluoropicolinamide] | 0.9 | 2.3 | 2.9 |  |  |  |  | 

More lines, now with the values ahead:

Row | IC50 (Pim1 kinase [1]) [nM] | IC50 (Pim2 kinase [2]) [nM] | IC50 (Pim3 kinase [3]) [nM] | EC50 ([4]; Table 4, 3 days) [nM] | IC50 (Pim1 kinase [5]) [nM] | EC50 ([4]; Table 5, 3 days) [nM] | IC50 (Pim3 kinase [6]) [nM] | IC50 (Pim2 kinase [7]) [nM] | Structure (SMILES)
9 |  | 43.1 |  | 8030 | 40.1 | 8030 | 3520 | 14200 | C[C@H]1C[C@@H](c2ccncc2NC(=O)c2nc(-c3cccc(F)n3)c(F)cc2N)C[C@@H](O)[C@]1(C)O [Example 126, 5-amino-N-(4-((1R,3R,4R,5S)-3,4-dihydroxy-4,5-dimethylcyclohexyl)pyridin-3-yl)-3,6′-difluoro-2,2′-bipyridine-6-carboxamide]
10 |  | 20 |  | 1390 | 11.9 | 1390 | 619 | 9180 | CCOc1cccc(-c2ccc(N)c(C(=O)Nc3cnccc3[C@H]3C[C@@H](O)[C@](C)(O)[C@@H](C)C3)n2)n1 [Example 127, 5-amino-N-(4-((1R,3R,4R,5S)-3,4-dihydroxy-4,5-dimethylcyclohexyl)pyridin-3-yl)-6′-ethoxy-2,2′-bipyridine-6-carboxamide]
11 |  | 9.7 |  | ≥ 10000 | 29 | > 10000 | 1070 | 2310 | C[C@H]1C[C@@H](c2ccncc2NC(=O)c2nc(-c3nc(F)c(F)cc3F)ccc2N)C[C@@H](O)[C@]1(C)O [Example 128, 5-amino-N-(4-((1R,3R,4R,5S)-3,4-dihydroxy-4,5-dimethylcyclohexyl)pyridin-3-yl)-3′,5′,6′-trifluoro-2,2′-bipyridine-6-carboxamide]
12 |  | 20.1 |  | 3300 | 57.7 | 3300 | 1710 | 8160 | C[C@H]1C[C@@H](c2ccncc2NC(=O)c2nc(-c3ccc(F)c(F)c3)ccc2N)C[C@@H](O)[C@]1(C)O [Example 129, 3-amino-6-(3,4-difluorophenyl)-N-(4-((1R,3R,4R,5S)-3,4-dihydroxy-4,5-dimethylcyclohexyl)pyridin-3-yl)picolinamide]
13 |  | 51.6 |  | ≥ 10000 | 146 | > 10000 | 5090 | 17000 | C[C@H]1C[C@@H](c2ccncc2NC(=O)c2nc(-c3nc(Cl)c(C#N)cc3F)ccc2N)C[C@@H](O)[C@]1(C)O [Example 131, 5-amino-6′-chloro-5′-cyano-N-(4-((1R,3R,4R,5S)-3,4-dihydroxy-4,5-dimethylcyclohexyl)pyridin-3-yl)-3′-fluoro-2,2′-bipyridine-6-carboxamide]
14 |  | 162 |  | 7140 | 2530 | 7140 | > 25000 | > 25000 | C[C@H]1C[C@@H](c2ccncc2NC(=O)c2nc(-c3cc(F)ccn3)ccc2N)C[C@@H](O)[C@]1(C)O [Example 132, 5-amino-N-(4-((1R,3R,4R,5S)-3,4-dihydroxy-4,5-dimethylcyclohexyl)pyridin-3-yl)-4′-fluoro-2,2′-bipyridine-6-carboxamide]
15 |  | 5.4 |  | 5370 | 7.19 | 5370 | 182 | 2630 | CC(=O)c1ccc(F)c(-c2ccc(N)c(C(=O)Nc3cnccc3[C@H]3C[C@@H](O)[C@](C)(O)[C@@H](C)C3)n2)n1 [Example 133, 6′-acetyl-5-amino-N-(4-((1R,3R,4R,5S)-3,4-dihydroxy-4,5-dimethylcyclohexyl)pyridin-3-yl)-3′-fluoro-2,2′-bipyridine-6-carboxamide]
16 |  | 50.7 |  | 4150 | 78.7 | 4150 | 3390 | 14300 | C[C@H]1C[C@@H](c2ccncc2NC(=O)c2nc(-c3ccc(F)cn3)ccc2N)C[C@@H](O)[C@]1(C)O [Example 134, 5-amino-N-(4-((1R,3R,4R,5S)-3,4-dihydroxy-4,5-dimethylcyclohexyl)pyridin-3-yl)-5′-fluoro-2,2′-bipyridine-6-carboxamide]
17 |  | 14.2 |  | ≥ 10000 | 33.5 | > 10000 | 1130 | 5690 | C[C@H]1C[C@@H](c2ccncc2NC(=O)c2nc(-c3cccc(F)n3)ccc2N)C[C@@H](O)[C@]1(C)O [Example 135, 5-amino-N-(4-((1R,3R,4R,5S)-3,4-dihydroxy-4,5-dimethylcyclohexyl)pyridin-3-yl)-6′-fluoro-2,2′-bipyridine-6-carboxamide]

— patent US20120225061A1, “TETRASUBSTITUTED CYCLOHEXYL COMPOUNDS AS KINASE INHIBITORS” (priority 2011, published 2012)
